Test results from US20250296938A1, “Compounds that Interact with the Ras Superfamily for the Treatment of Cancers, Inflammatory Diseases, Rasopathies, and Fibrotic Disease” (SHY Therapeutics, LLC, priority 2018, published 2025).

Key:
MAPK phosphorylation [1] = assay: MAPK cell-based phosphorylation assay (ELISA or Western), PANC-1; settings: Homo sapiens, PANC-1; for inhibition at 10 µM: 6 hours, EGF stimulation
Summary of the method: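 Serum-starved (0.5% FBS overnight) cells given compound at 10 μM or serial dilutions (0.3% DMSO) for 6 h at 37 °C, then 1.5 ng/mL EGF for 15 min. Phospho-MAPK read by fixed-cell ELISA (fluorescence, 595 nm) or by Western blot of lysates with anti-phospho-p44/42 (Thr202/Tyr204).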

MAPK phosphorylation [2] = assay: Western MAPK cell-based phosphorylation assay, BxPC3; settings: Homo sapiens; for inhibition at 10 µM: BXPC-3, 10 μM, 6 hours, EGF stimulation
Description: (§1) Cell lines: Human NSCLC cells NCI-H1975 and NCI-H1299, and tumor-derived pancreatic cancer cell lines Panc-1, MIA-PaCa-2, and BxPC3, were all purchased from American Type Culture Collection and grown in complete RPMI medium (BxPC3, NCI-H1975 and NCI-H1299) or DMEM-High Glucose (Panc1 and MIA-PaCa-2), supplemented with penicillin (100 U/mL), streptomycin (100 μg/mL), and 10% heat-inactivated FBS at 37° C. in a humidified incubator with 5% CO2.
(§2) Method: Cells were plated at 350000 cells/well density in a 12-well plate, allowed 3 hours to adhere to the plate, then starved in the appropriate medium in the presence of 0.5% FBS overnight. The small molecules to be tested were added to the cells in the final concentration of 10 μM in the presence of 0.3% DMSO for 6 hours incubation at 37° C. For IC50 value determination, serial dilutions of compounds were added to cells under the same conditions. Next, cells were stimulated with 1.5 ng/ml EGF for 15 minutes then cells were lysed with lysis buffer containing 1% Triton X-100, EDTA, and Halt™ Protease & Phosphatase Inhibitor Cocktail (Thermo Scientific). Protein concentration was assessed by BCA protein assay (Thermo Scientific). Phosphorylation level of MAPK was determined by western blot.
(§3) Western blot protocol: Equal amounts of protein (15-50 μg) were separated by SDS-PAGE and transferred to nitrocellulose membranes (Invitrogen by Thermo Fisher Scientific). The membrane was stained with Ponceau S Stain (Boston BioProducts) to verify uniform protein loading. Membranes were blocked with 10% milk and phosphorylation levels of MAPK were assessed by incubating overnight at 4° C. with anti-phospho-p44/42 (Thr202/Tyr204) antibody (Cell Signaling) followed by HRP-conjugated secondary antibody (Jackson Immunoresearch, West Grove, PA). Bands were incubated in Amersham ECL Prime Western Blotting Detection Reagent (GE Healthcare) and visualized using the ChemiDoc MP imaging system (Bio-Rad).

MAPK phosphorylation [3] = assay: Western MAPK cell-based phosphorylation assay, MIA PaCa-2; settings: Homo sapiens; for inhibition at 10 µM: 6 hours, EGF stimulation
Description: as §1, §2, §3

MAPK phosphorylation [4] = assay: Western MAPK cell-based phosphorylation assay, NCI H1975; settings: Homo sapiens; for inhibition at 10 µM: 6 hours, EGF stimulation
Description: as §1, §2, §3

MAPK phosphorylation [5] = assay: Western MAPK cell-based phosphorylation assay, NCI H1299; settings: Homo sapiens; for inhibition at 10 µM: 6 hours, EGF stimulation
Description: as §1, §2, §3

AKT phosphorylation = assay: Western AKT cell-based phosphorylation assay, PANC-1; settings: Homo sapiens, 6 hours, EGF stimulation, PANC-1
Summary of the method: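 PANC-1 cells, serum-starved overnight in 0.5% FBS, were treated with compound at 10 μM (0.3% DMSO) for 6 h at 37 °C and then stimulated with 1.5 ng/ml EGF for 15 min. Lysates (15–50 μg) were immunoblotted for phospho-Akt Ser473, with ECL detection.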

[6] = tested on: BxPC3 pancreatic cancer cell line; assay: Cell proliferation assay (DAPI); type: cell-based; settings: Homo sapiens, BXPC-3
Summary of the method: (§4)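 NCI-H1975 cells in RPMI; PANC-1 and MIA PaCa-2 in DMEM-high glucose; BxPC3 in RPMI; all with 10% FBS. Compounds at 10 µM final (or serial dilutions for IC50), 0.3% DMSO, 2–4 days at 37 °C. Fixed, DAPI-stained, fluorescence read at 358/461 nm to give proliferation inhibition.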

[7] = tested on: MIA PaCa-2 pancreatic cancer cell line; assay: Cell proliferation assay (DAPI); type: cell-based; settings: Homo sapiens, MIA PaCa-2
Summary of the method: as §4

[8] = tested on: PANC-1 pancreatic cancer cell line; assay: Cell proliferation assay (DAPI); type: cell-based; settings: Homo sapiens
Summary of the method: as §4

Compound | inhibition at 10 µM (MAPK phosphorylation [1]) [%] | inhibition at 10 µM (MAPK phosphorylation [2]) [%] | inhibition at 10 µM (MAPK phosphorylation [3]) [%] | inhibition at 10 µM (MAPK phosphorylation [4]) [%] | inhibition at 10 µM (MAPK phosphorylation [5]) [%] | inhibition at 10 µM (AKT phosphorylation) [%] | further results
CO[C@H]1CCC(Nc2nc(-c3nccn3C)nc3sc(-c4ccn(C)n4)c(-c4ccccc4)c23)C1 (some centres unmarked) [drawing 406] | 76 to 100 | 76 to 100 | 76 to 100 | 76 to 100 | 76 to 100 | 76 to 100 | 
CO[C@@H]1CCC(Nc2nc(-c3nccn3C)nc3sc(-c4ccn(C)n4)c(-c4ccccc4)c23)C1 (some centres unmarked) [drawing 407] | 76 to 100 | 0 | 0 | 26 to 50 | 26 to 50 | 0 | 
COCC1CCN(c2nc(-c3nccn3C)nc3sc(-c4ccn(C)n4)c(-c4ccccc4)c23)C1 (centres unmarked) [drawing 408] | 76 to 100 |  |  |  | 26 to 50 | 0 | 
COCC(C)Nc1nc(-c2nccn2C)nc2sc(-c3cccc(OC)c3)c(-c3cscn3)c12 (centres unmarked) [drawing 416] | 76 to 100 | 76 to 100 | 26 to 50 |  |  | 0 | 
COCCNc1nc(-c2nccn2C)nc2sc(-c3ccccc3Cl)c(-c3ccc(OC)cc3)c12 [drawing 418] | 76 to 100 | 0 | 76 to 100 | 0 | 0 | 0 | 
COCCNc1nc(-c2nccn2C)nc2sc(-c3cccc(OC)c3)c(-c3ccc(OC)cc3)c12 [drawing 419] | 76 to 100 | 0 | 76 to 100 | 76 to 100 | 0 | 0 | 
COCCNc1nc(-c2nccn2C)nc2sc(-c3cccc(OC)c3Cl)c(-c3ccc(OC)cc3)c12 [drawing 420] | 76 to 100 | 1 to 25 | 76 to 100 | 76 to 100 | 0 | 26 to 50 | 
COCCNc1nc(-c2nccn2C)nc2sc(-c3cc(OC)ccc3Cl)c(-c3ccc(OC)cc3)c12 [drawing 421] | 51 to 75 | 0 | 0 |  |  | 0 | 
COCCNc1nc(-c2cn(C)cn2)nc2sc(-c3ccccc3Cl)c(-c3ccc(OC)cc3)c12 [drawing 422] | 76 to 100 | 26 to 50 | 76 to 100 | 76 to 100 | 0 | 0 | 
COCCNc1nc(-c2nccn2C)nc2sc(-c3cccc(OC)c3Cl)c(-c3ccccc3)c12 [drawing 425] | 76 to 100 | 76 to 100 | 76 to 100 | 76 to 100 | 76 to 100 | 76 to 100 | 
COCCNc1nc(-c2nccn2C)nc2sc(-c3cccc(OC)c3Cl)c(-c3ccccc3)c12 [drawing 472] |  |  |  |  |  |  | IC50 (MAPK phosphorylation [1]): 750 to 1000 nM; IC50 (MAPK phosphorylation [2]; BXPC-3): > 1000 nM; IC50 (MAPK phosphorylation [3]): 750 to 1000 nM; IC50 (MAPK phosphorylation [4]): > 1000 nM; IC50 (MAPK phosphorylation [5]): > 1000 nM
CO[C@H]1CCC(Nc2nc(-c3nccn3C)nc3sc(-c4ccn(C)n4)c(-c4ccccc4)c23)C1 (some centres unmarked) [drawing 474] |  |  |  |  |  |  | IC50 (MAPK phosphorylation [1]): 750 to 1000 nM; IC50 (MAPK phosphorylation [3]): > 1000 nM; IC50 (MAPK phosphorylation [4]): > 1000 nM
COCCCNc1nc(-c2nccn2C)nc2sc(-c3ccn(C)n3)c(-c3ccccc3)c12 [drawing 542] |  |  |  |  |  |  | IC50 [6]: 750 to 1000 nM; IC50 [7]: > 1000 nM; inhibition at 10 µM ([7]; 10 μM, 2-4 days, read-out: % Inhibition of cell proliferation, MIA PaCa-2 % inh): 76 to 100%; IC50 [8]: 750 to 1000 nM
